The values below are quoted from earlier work in patent US20070136825A1, “Fusion proteins useful for detecting analytes” (priority 2001, published 2007).

For the data set the following is noted: glucose; GGBP alone; Zukin et al.; read-out: Kd Binding protein, glucose.

For the substance “GGBP: glucose/galactose binding protein (mglB, E. coli), SEQ ID NO:4”, the Kd – broadly, the constant that tells how readily two partners part at equilibrium – is 210 nM.
